Assay results reported in US20080234188A1, “Antimicrobial Peptides” (The Hospital for Sick Children, priority 2001, published 2008).
Values after ≈ are worked out from the molar mass of the structure shown. Where a SMILES comes first, the peptide text is derived from it.

Legend:
E. coli UB1005 = type: cell-based, Escherichia coli; conditions: UB1005
How it was run: (§1)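 Broth microdilution in Mueller Hinton broth, 2−7×10^5 CFU/ml, peptides serially doubled in 0.01% acetic acid/0.2% BSA. Incubation 37° C for 18-24 h, rechecked at 40-48 h; MIC read visually and at 600 nm.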

B. subtilis ATCC6633 = type: cell-based, Bacillus subtilis
Source text: (§2) The bacterial strains used were E. coli C498, E. coli C500, Escherichia coli UB1005 and its antibiotic supersusceptible derivative DC2 (22); a clinical isolate of Staphylococcus epidermidis (C621); coryneform bacterial strain Corynebacterium xerosis (C875); and E. coli ATCC 25922, Staphylococcus aureus ATCC 25923, Enterococcus faecalis ATCC 29212, Bacillus subtilis ATCC 6633 and Pseudomonas aeruginosa ATCC 27853, all from American Type Culture Collection.
(§3) Peptide antibacterial activity was assessed by the method of R. Hancock et al. (Wu & Hancock (1999), J. Biol. Chem., v. 274, pp. 29-35). Test strains of bacteria from Mueller Hinton agar (MHA) plates were inoculated into 5 ml Mueller Hinton Broth (MHB) in tubes and grown overnight at 37° C. on a shaker (180 rpm). Serial dilutions of test peptides (at 10 times the required test concentrations) were made in 0.01% acetic acid, 0.2% BSA, in polypropylene or coated glass tubes as follows: the test peptide was (a) dissolved in distilled water at 20 times the required maximum concentration (enough final volume for all tests to be performed on a given day); (b) diluted into an equal volume of 0.02% acetic acid, 0.4% BSA to give 10 times the required maximum concentration; (c) serial doubling dilutions were performed in 0.01% acetic acid, 0.2% BSA to provide serial dilutions of peptides at 10 times the required test concentrations, e.g., 640, 320, 160, . . . 2.5 μg/ml. (No deleterious effects of long-term storage of peptides in these media have been detected). Overnight bacterial cultures were diluted in MHB to give 2−7×10^5 colony forming units/ml. Bacterial suspension (100 μl) was dispensed in each well; controls without bacteria were maintained in parallel. To each well was added 11 μl of 10× test peptide and plates were incubated at 37° C. for 18-24 hours, and checked again at 40-48 hours. Plates were read visually and at 600 nm in a microplate reader (Molecular Devices).
(§4) A further number of the peptides of the invention were tested for antimicrobial activity against a range of Gram-positive and Gram-negative bacteria by the assay described immediately before Example 1.

E. faecalis ATCC29212 = type: cell-based, Enterococcus faecalis
Source text: as §2, §3, §4

E. coli ATCC25922 = type: cell-based
Source text: as §2, §3, §4

[1] = test system: Corynebacterium xerosis (C875); type: cell-based
How it was run: (§5)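 Broth microdilution in Mueller Hinton Broth, inoculum 2−7×10^5 CFU/ml. Peptides serially doubled in 0.01% acetic acid, 0.2% BSA and added at 10× final concentration. Incubation 37° C for 18-24 h, rechecked at 40-48 h; growth read visually and at 600 nm.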

[2] = test system: Staphylococcus epidermidis (C621); type: cell-based; conditions: C621
How it was run: as §5

[3] = test system: C500: E. coli, antibiotic strain; type: cell-based; conditions: C500: , antibiotic strain
Source text: as §2, §3
(§6) were synthesized. The antibacterial activity of these peptides was determined against both Gram-positive bacteria ([…], Corynebacterium xerosis) and Gram-negative bacteria (various strains of E. coli). The results are shown in Table 2, along with the average hydrophobicity of each peptide, calculated as described herein.

[4] = test system: C498: E. coli, wild type strain; type: cell-based; conditions: C498: , wild type strain
Source text: as §2, §3, §6

S. aureus ATCC25923 = type: cell-based, Staphylococcus aureus
Source text: as §2, §3, §4

P. aeruginosa ATCC27853 = type: cell-based, Pseudomonas aeruginosa
Source text: as §2, §3, §4

Rabbit RBC = type: cell-based
Experimental: (§7) Erythrocytes from heparinized rabbit or human blood were washed three times with phosphate-buffered saline (PBS; 5 mM phosphate buffer, 0.14 M saline, pH 7.3), and centrifuged at 1000×g for 15 min at 4° C. The erythrocytes were diluted with PBS to 4% (v/v). Dilutions of the peptides in PBS were plated in 100 μl volumes in microtitre plates (Costar 3790, polypropylene) together with 100μl of the erythrocyte suspension. PBS was used as control and 100% lysis was determined in 0.1% Triton X-100. The plates were incubated at 37° C. for 1 h and then centrifuged at 1000×g for 5 min. 100 μl aliquots of the supernatant were transferred to microtitre plates (Nunc, polystyrene), and the release of hemoglobin was monitored by measurement of the absorbance at 540 nm in a microplate reader. The results are shown in Table 6, for peptide concentrations of […]. With only one or two exceptions, little or no hemolysis was seen.

Human RBC = type: cell-based
Experimental: as §7

E. coli DC2 = assay: Assay of antibacterial activity (MIC), E. coli DC2; type: cell-based, Escherichia coli
How it was run: as §1

| Structure (SMILES) | MIC E. coli UB1005 (E. coli UB1005) | MIC B. subtilis ATCC6633 (B. subtilis ATCC6633) | MIC E. faecalis ATCC29212 (E. faecalis ATCC29212) | MIC E. coli ATCC25922 (E. coli ATCC25922) | MIC C875 [1] | MIC C621 [2] | MIC S. epidermidis C621 [2] | MIC C500 [3] | MIC C498 [4] | MIC S. aureus ATCC25923 (S. aureus ATCC25923) | MIC P. aeruginosa ATCC27853 (P. aeruginosa ATCC27853) | Rabbit RBC (% lysis) 50 μM (Rabbit RBC) | Rabbit RBC (% lysis) 200 μM (Rabbit RBC) | Human RBC (% lysis) 50 μM (Human RBC) | Human RBC (% lysis) 200 μM (Human RBC) | MIC E. coli DC2 (E. coli DC2; Table 5A) | MIC C. xerosis C875 [1] | MIC E. coli DC2 (E. coli DC2; Table 3, Gram-negative) |
| --- | --- | --- | --- | --- | --- | --- | --- | --- | --- | --- | --- | --- | --- | --- | --- | --- | --- | --- |
| C[C@H](NC(=O)[C@H](C)NC(=O)[C@H](C)NC(=O)[C@H](CCCCN)NC(=O)[C@@H](N)CCCCN)C(=O)N[C@@H](C)C(=O)N[C@@H](Cc1ccccc1)C(=O)N[C@@H](C)C(=O)N[C@@H](C)C(=O)N[C@@H](Cc1ccccc1)C(=O)N[C@@H](C)C(=O)N[C@@H](C)C(=O)N[C@@H](Cc1c[nH]c2ccccc12)C(=O)N[C@@H](Cc1ccccc1)C(=O)N[C@@H](C)C(=O)N[C@@H](C)C(=O)N[C@@H](Cc1ccccc1)C(=O)N[C@@H](C)C(=O)N[C@@H](C)C(=O)N[C@@H](C)C(=O)N[C@@H](C)C(=O)N[C@@H](CCCCN)C(=O)N[C@@H](CCCCN)C(=O)N[C@@H](CCCCN)C(=O)N[C@@H](CCCCN)C(N)=O [[F(4)25]] (H-KKAAAAFAAFAAWFAAFAAAAKKKK-NH2; N-terminus assumed) | 8 µM (≈ 20.4 µg/mL) | 2 µM (≈ 5.11 µg/mL) | >32 µM | 16 µM (≈ 40.9 µg/mL) | 0.25 µM (≈ 0.639 µg/mL) | 8 µM (≈ 20.4 µg/mL) | 4 µM (≈ 10.2 µg/mL) | 4 µM (≈ 10.2 µg/mL) | 16 µM (≈ 40.9 µg/mL) | 32 µM (≈ 81.8 µg/mL) | 8 µM (≈ 20.4 µg/mL) | 14 % lysis | 34 % lysis | 17 % lysis | 42 % lysis |  |  |  |
| C[C@H](NC(=O)[C@H](C)NC(=O)[C@H](Cc1ccccc1)NC(=O)[C@H](C)NC(=O)[C@H](C)NC(=O)[C@H](Cc1c[nH]c2ccccc12)NC(=O)[C@H](C)NC(=O)[C@H](C)NC(=O)[C@H](Cc1ccccc1)NC(=O)[C@H](C)NC(=O)[C@H](C)NC(=O)[C@H](CCCCN)NC(=O)[C@H](CCCCN)NC(=O)[C@H](CCCCN)NC(=O)[C@H](CCCCN)NC(=O)[C@H](CCCCN)NC(=O)[C@@H](N)CCCCN)C(N)=O [F17(K6), KKKKKKAAFAAWAAFAA-NH2] (H-KKKKKKAAFAAWAAFAA-NH2; N-terminus assumed) | 1 µM (≈ 1.84 µg/mL) | 8 µM (≈ 14.7 µg/mL) | >32 µM | 8 µM (≈ 14.7 µg/mL) | 0.5 µM (≈ 0.918 µg/mL) |  | 4 µM (≈ 7.34 µg/mL) | <0.25 µM | 0.5 µM (≈ 0.918 µg/mL) | >32 µM | 16 µM (≈ 29.4 µg/mL) | 0 % lysis | 1 % lysis | 0 % lysis | 0 % lysis | 0.5 µM (≈ 0.918 µg/mL) | 0.5 µM (≈ 0.918 µg/mL) |  |
| C[C@H](NC(=O)[C@H](C)NC(=O)[C@H](C)NC(=O)[C@H](Cc1ccccc1)NC(=O)[C@H](C)NC(=O)[C@H](C)NC(=O)[C@H](C)NC(=O)[C@H](CCCCN)NC(=O)[C@@H](N)CCCCN)C(=O)N[C@@H](C)C(=O)N[C@@H](C)C(=O)N[C@@H](Cc1ccccc1)C(=O)N[C@@H](C)C(=O)N[C@@H](C)C(=O)N[C@@H](Cc1c[nH]c2ccccc12)C(=O)N[C@@H](C)C(=O)N[C@@H](C)C(=O)N[C@@H](Cc1ccccc1)C(=O)N[C@@H](C)C(=O)N[C@@H](C)C(=O)N[C@@H](C)C(=O)N[C@@H](CCCCN)C(=O)N[C@@H](CCCCN)C(=O)N[C@@H](CCCCN)C(=O)N[C@@H](CCCCN)C(N)=O [Peptide F25] (H-KKAAAFAAAAAFAAWAAFAAAKKKK-NH2; N-terminus assumed) | 16 µM (≈ 39.7 µg/mL) | 1 µM (≈ 2.48 µg/mL) | >32 µM | >32 µM | 0.25 µM (≈ 0.62 µg/mL) | 0.5 to 2 µM | 2 µM (≈ 4.96 µg/mL) | 4 µM (≈ 9.92 µg/mL) | 8 µM (≈ 19.8 µg/mL) | >32 µM | 8 µM (≈ 19.8 µg/mL) | 0 % lysis | 4 % lysis | 0 % lysis | 1 % lysis | 4 µM (≈ 9.92 µg/mL) | <0.25 µM | 4 µM (≈ 9.92 µg/mL) |
| C[C@H](NC(=O)[C@H](C)NC(=O)[C@H](C)NC(=O)[C@H](Cc1ccccc1)NC(=O)[C@H](C)NC(=O)[C@H](CCCCN)NC(=O)[C@@H](N)CCCCN)C(=O)N[C@@H](C)C(=O)N[C@@H](C)C(=O)N[C@@H](Cc1ccccc1)C(=O)N[C@@H](C)C(=O)N[C@@H](C)C(=O)N[C@@H](Cc1c[nH]c2ccccc12)C(=O)N[C@@H](C)C(=O)N[C@@H](C)C(=O)N[C@@H](Cc1ccccc1)C(=O)N[C@@H](C)C(=O)N[C@@H](CCCCN)C(=O)N[C@@H](CCCCN)C(=O)N[C@@H](CCCCN)C(=O)N[C@@H](CCCCN)C(N)=O [Peptide F21] (H-KKAFAAAAAFAAWAAFAKKKK-NH2; N-terminus assumed) | 8 µM (≈ 17.6 µg/mL) | 2 µM (≈ 4.39 µg/mL) | >32 µM | 32 µM (≈ 70.3 µg/mL) |  | 8 to 16 µM | 8 µM (≈ 17.6 µg/mL) | 4 µM (≈ 8.78 µg/mL) | 8 µM (≈ 17.6 µg/mL) | >32 µM | >32 µM | 1 % lysis | 3 % lysis | 0 % lysis | 0 % lysis | 4 µM (≈ 8.78 µg/mL) | 0.5 µM (≈ 1.1 µg/mL) |  |
| C[C@H](NC(=O)[C@H](C)NC(=O)[C@H](CCCCN)NC(=O)[C@H](CCCCN)NC(=O)[C@@H](N)CCCCN)C(=O)N[C@@H](C)C(=O)N[C@@H](Cc1ccccc1)C(=O)N[C@@H](C)C(=O)N[C@@H](C)C(=O)N[C@@H](Cc1c[nH]c2ccccc12)C(=O)N[C@@H](C)C(=O)N[C@@H](C)C(=O)N[C@@H](Cc1ccccc1)C(=O)N[C@@H](C)C(=O)N[C@@H](CCCCN)C(=O)N[C@@H](CCCCN)C(=O)N[C@@H](CCCCN)C(N)=O [Peptide F17, KKKAAAFAAWAAFAKKK-NH2] (H-KKKAAAFAAWAAFAKKK-NH2; N-terminus assumed) | 32 µM (≈ 58.7 µg/mL) | 16 µM (≈ 29.4 µg/mL) | >32 µM | >32 µM |  |  | >32 µM |  |  | >32 µM | >32 µM | 0 % lysis | 2 % lysis | 0 % lysis | 0 % lysis | 16 µM (≈ 29.4 µg/mL) | 4 µM (≈ 7.34 µg/mL) |  |
